The values that follow come from patent publication EP1595878A1, “INDOLE DERIVATIVES WITH APOPTOSIS INDUCING ACTIVITY” (Zentaris GmbH, priority 2004, dated 2005).

One data set relates to Rindertubulin. The data set is described as follows: Inhibition of tubulin polymerisation in vitro. The data set is classed as biochemical, Rind. Conditions: for Hemmwirkung auf die Polymerisation von Tubulin: verbal summary of Table 3; for EC50: cells print µM, head µg/ml, read-out: Hemmung der Tubulin-Polymerisation, EC50. The source says:
Die Substanzen 1, 4, 9, 11, 12, 13 und 15 wurden in einem in-vitro Test auf Hemmung der Polymerisation von Rindertubulin getestet (D.M. Bollag et al. Cancer Res. 1995, 55, 2325-2333). In diesem Test wird durch Zyklen von Polymerisation und Depolymerisation aufgereinigtes Tubulin eingesetzt, welches durch Zugabe von GTP und Erwärmung zur Polymerisation gebracht wird. In Tabelle 3 sind die EC50 Werte der Polymerisationshemmung von Tubulin mit 30% assoziierten Proteinen (MAPs) angegeben.

In data set [1] the test system is humane Cervixkarzinom Zelllinie KB/HeLa (ATCC CCL17). In words: XTT proliferation assay (cytotoxicity test), KB/HeLa. Particulars: Homo sapiens, read-out: XTT Proliferationsassay, EC50. In kind it is cell-based. The source says: (§1) Die Substanzen 1, 2, 4, 9, 11, 12 , 13 und 15 wurden in einem Proliferationstest an etablierten Tumorzelllinien auf ihre anti-proliferative Aktivität hin untersucht (D.A. Scuderio et al. Cancer Res. 1988, 48, 4827-4833). Der verwendete Test bestimmt die zelluläre Dehydrogenase-Aktivität und ermöglicht eine Bestimmung der Zellvitalität und indirekt der Zellzahl. Bei den verwendeten Zelllinien handelt es sich um die humane Cervixkarzinom Zelllinie KB/HeLa (ATCC CCL17), die ovariale Adenokarzinomzelllinie SKOV-3 (ATCC HTB77), die humane Glioblastom Zelllinie SF-268 (NCI 503138) und die Lungenkarzinom Zelllinie NCI-H460 (NCI 503473).
A general note: Formazan colour is commonly taken as a measure of viable cells.

Data set [2] relates to ovariale Adenokarzinomzelllinie SKOV-3 (ATCC HTB77). In words: XTT proliferation assay (cytotoxicity test), SKOV-3. In kind it is cell-based. Conditions: Homo sapiens, SK-OV-3; SKOV3; read-out: XTT Proliferationsassay, EC50.
Description: as §1

Data set [3] has as its system humane Glioblastom Zelllinie SF-268 (NCI 503138). In words: XTT proliferation assay (cytotoxicity test), SF-268. Particulars: Homo sapiens, read-out: XTT Proliferationsassay, EC50. In kind it is cell-based.
Description: as §1

For data set [4], the system named is Lungenkarzinom Zelllinie NCI-H460 (NCI 503473). The data set is described as follows: XTT proliferation assay (cytotoxicity test), NCI-H460. In kind it is cell-based. Conditions: Homo sapiens, NCl-H460, read-out: XTT Proliferationsassay, EC50.
Description: as §1

In a further data set the test system is Melanom, MEXF462. The data set is classed as in vivo, Mäuse. Particulars: for Todesfällen: dead animals / total. The text has this:
Die in vivo Aktivität und Verträglichkeit der erfindungsgemäßen Verbindung 2 wurde im Vergleich zu den Substanzen 10 und 14 in einem humanen Xenograft-Modell (Melanom, MEXF462) überprüft. Die Ergebnisse sind in der nachfolgenden Tabelle 6 zusammengefasst: in vivo Aktivitäten von Verbindung 2, 10 and 14 (Melanom; MEXF462) Tabelle 6: […]

A further data set deals with Mamma, MAXF857. The data set is classed as in vivo, Mäuse. Particulars: 40 mg/kg p.o.; for Todesfällen: dead animals / total. The source says: Die in vivo Aktivität und Verträglichkeit der erfindungsgemäßen Verbindung 2 wurde im Vergleich zu der Substanz 10 in einem weiteren humanen Xenograft-Modell (Mamma, MAXF857) überprüft. Die Ergebnisse werden in der nächsten Tabelle gezeigt: Effect of 2 and 10 on the Mammary Cancer MAXF857 Tabelle 7: […]

The target in data set [5] is humaner DNA-Topoisomerase II (Homo sapiens, UniProt P11388). In words: kDNA decatenation assay for topoisomerase II activity. Particulars: compound 1 at 100, 31.6 and 10 µM; reference compounds at 100 µM. The data set is classed as biochemical. The method, then: In diesem von P. Arimondo (Anti-Cancer Drug Design 2000, 15 (6), 413-421) beschriebenen Assay wird kDNA mit humaner DNA-Topoisomerase II in Abwesenheit oder Gegenwart der Testverbindungen behandelt. Die Testung der erfindungsgemäßen Verbindung 1 erfolgte hierbei bei drei unterschiedlichen Konzentrationen (100, 31.6 und 10 µM). Zum Vergleich setzte man eine Positivkontrolle und die Referenzverbindungen m-Amsacrin (m-Amsa), Paclitaxel (Taxol) und Vincristine bei einer jeweiligen Konzentration von 100µM ein.
Sequence of humaner DNA-Topoisomerase II (P11388 whole entry): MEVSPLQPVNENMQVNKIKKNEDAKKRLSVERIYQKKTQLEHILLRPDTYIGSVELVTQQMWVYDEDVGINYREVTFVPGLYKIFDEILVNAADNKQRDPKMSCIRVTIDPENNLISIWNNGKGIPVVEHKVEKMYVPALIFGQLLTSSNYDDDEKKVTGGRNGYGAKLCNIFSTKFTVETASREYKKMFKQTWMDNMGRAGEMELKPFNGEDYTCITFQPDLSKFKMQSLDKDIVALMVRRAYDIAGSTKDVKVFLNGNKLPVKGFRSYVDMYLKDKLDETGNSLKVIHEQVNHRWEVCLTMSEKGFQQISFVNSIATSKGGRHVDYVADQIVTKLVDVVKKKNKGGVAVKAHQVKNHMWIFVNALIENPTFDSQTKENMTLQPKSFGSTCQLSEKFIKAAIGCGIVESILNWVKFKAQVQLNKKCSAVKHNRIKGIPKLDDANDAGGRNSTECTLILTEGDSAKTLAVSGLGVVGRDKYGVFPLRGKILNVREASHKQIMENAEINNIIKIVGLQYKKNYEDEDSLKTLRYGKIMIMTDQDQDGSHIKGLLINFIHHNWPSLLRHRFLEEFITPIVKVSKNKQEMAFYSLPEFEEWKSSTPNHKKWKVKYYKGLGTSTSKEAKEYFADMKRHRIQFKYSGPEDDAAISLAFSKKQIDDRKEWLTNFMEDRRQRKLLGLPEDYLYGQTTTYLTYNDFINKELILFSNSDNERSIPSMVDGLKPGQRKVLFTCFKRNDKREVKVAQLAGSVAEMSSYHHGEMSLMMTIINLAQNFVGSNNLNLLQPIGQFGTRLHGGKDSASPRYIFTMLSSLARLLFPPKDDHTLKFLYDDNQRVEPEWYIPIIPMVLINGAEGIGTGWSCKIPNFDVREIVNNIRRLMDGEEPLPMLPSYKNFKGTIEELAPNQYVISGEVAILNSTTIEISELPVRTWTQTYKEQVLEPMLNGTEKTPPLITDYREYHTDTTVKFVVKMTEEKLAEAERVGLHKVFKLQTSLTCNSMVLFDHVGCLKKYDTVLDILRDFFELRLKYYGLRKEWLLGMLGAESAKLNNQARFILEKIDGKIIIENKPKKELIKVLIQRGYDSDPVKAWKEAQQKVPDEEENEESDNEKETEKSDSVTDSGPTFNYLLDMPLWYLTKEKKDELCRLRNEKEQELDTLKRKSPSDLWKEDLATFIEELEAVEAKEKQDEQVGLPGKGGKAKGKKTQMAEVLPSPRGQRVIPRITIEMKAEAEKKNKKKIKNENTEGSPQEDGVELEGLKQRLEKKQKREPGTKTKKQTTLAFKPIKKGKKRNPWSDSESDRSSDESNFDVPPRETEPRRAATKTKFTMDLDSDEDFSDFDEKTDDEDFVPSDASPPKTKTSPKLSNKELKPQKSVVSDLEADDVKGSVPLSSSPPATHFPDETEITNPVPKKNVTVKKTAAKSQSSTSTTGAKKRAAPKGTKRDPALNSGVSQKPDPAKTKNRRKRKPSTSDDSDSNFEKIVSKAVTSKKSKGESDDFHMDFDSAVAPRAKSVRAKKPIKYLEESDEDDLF
Zu 1µL vorgelegter Testsubstanz (20fach konzentriert in 100% DMSO) werden 2µL 10x Assay Puffer, 1µL kDNA (200ng), 0,5µL human Topoisomerase II (1unit) und 15,5µL H2O pipettiert und gemischt.
Die Reaktionsansätze werden in den auf 37°C vorgeheizten Heizblock gestellt und 10min bei 37°C inkubiert. Die Inkubation wird nach Zugabe von 4µL 5x Stop Puffer gestoppt und nachfolgend die Substanz mit CIA extrahiert. Danach werden 20µL des Überstandes auf ein 1 % Agarosegel mit 0,25µg/mL Ethidiumbromid aufgetragen und 1 h bei 100V aufgetrennt. Zum Schluss wird das Gel unter UV-Anregung fotografiert (s. Figur 1). Die Quantifizierung der Inhibierung der Decatenation von kDNA erfolgt mit der GelPro®Analyzer Software (s. Figur 2)

The target of another data set is human Topoisomerase II (Homo sapiens, UniProt P11388). In words: pRYG relaxation assay for topoisomerase II activity. In kind it is biochemical. Conditions: compound 1 at 100, 31.6 and 10 µM; reference compounds at 316 and 100 µM. Here is the method:
Mit diesem Relaxationsassay konnte zusätzlich die inhibitorische Eigenschaft der erfindungsgemäßen Verbindungen auf Topoisomerase II gezeigt werden. Die Testung der erfindungsgemäßen Verbindung 1 erfolgte hierbei bei drei unterschiedlichen Konzentrationen (100, 31.6 und 10 µM). Zum Vergleich setzte man die Referenzverbindungen m-Amsacrin, Paclitaxel (Taxol) und Vincristine bei Konzentrationen von 316 und 100µM ein.
Zu 1µL vorgelegter Testsubstanz (20fach konzentriert in 100% DMSO) werden 2µL 10x Assay Puffer, 0,5µL pRYG DNA (125ng), 0,5µL human Topoisomerase II (1 unit) und 16µL H2O pipettiert und gemischt. Die Reaktionsansätze werden in den auf 37°C vorgeheizten Heizblock gestellt und 30min bei 37°C inkubiert. Die Inkubation wird nach Zugabe von 4µL 5x Stop Puffer abgestoppt. Danach werden 10µL des Ansatzes auf ein 1,2% Agarosegel mit 0,25µg/mL Ethidiumbromid aufgetragen und 2,5h bei 100V aufgetrennt. Zum Schluß wird das Gel unter UV Anregung fotografiert (s. Figur 3). Die Quantifizierung der Inhibierung der pRYG Relaxation erfolgt mit der GelPro®Analyzer Software (s. Figur 4).

For a further data set, the system named is KB/HeLa Zellen. In words: Cell cycle analysis (G2/M arrest). The data set is classed as cell-based. Conditions: Homo sapiens, HeLa, 24 h, read-out: EC50 in nM (50% cells in G2/M). The text has this:
Der Zellzyklus umfasst die Entwicklung der Zelle von einer Zellgeneration zur nächsten.
Während der Ruhephase (G0) und präsynthetischen Phase (G1) besitzt die Zelle einen diploiden Chromosomensatz (2c). In der Synthesephase (S) wird die DNA-Menge durch Replikation vermehrt. Die S-Phase endet mit Erreichen der prämitotischen Phase (G2M), in der die Zelle einen reduplizierten Chromosomenbestand (4c) und verdoppelten DNA-Gehalt aufweist. In der nachfolgenden, kurzdauernden Mitosephase (M) kommt es zur gleichmäßigen Aufteilung der reduplizierten Chromosomen auf zwei Tochterzellen, die dann jeweils wieder einen diploiden DNA Gehalt zeigen und sich in der G01-Phase befinden, so daß der Zellzyklus neu beginnen kann.
Für die Zellzyklusanalyse wurden KB/HeLa Zellen mit den Testsubstanzen in unterschiedlichen Konzentrationen (0.1-1000 nM) 24 Stunden bei 37°C behandelt.
Der prozentuale Anteil der in der G2/M Phase des Zellzyklus arrettierten Zellen nach Behandlung mit Referenz- oder ausgewählten Testsubstanzen ist in der nachfolgenden Tabelle 4 dargestellt. Die Ergebnisse wurden mit einer speziellen Analysesoftware (ModFit™) ausgewertet.

Where [6] appears, read: tubulin with 30% associated proteins (MAPs).

Where two headings read alike, the source gives them in different places. Where only a bound is given, the exact number is not on record here.

Sequence of human Topoisomerase II (P11388 whole entry): as above

For the molecule `O=C(Nc1ccc2ncccc2c1)C(=S)c1cn(Cc2ccc(Cl)cc2)c2ccccc12` [Verbindung 11, 2-[1-(4-Chlor-benzyl)-1H-indol-3-yl]-N-chinolin-6-yl-2-thioxo-acetamid], the “Hemmung der Tubulin-Polymerisation, EC50” value with Rindertubulin (tubulin with 30% associated proteins (MAPs), mean of two independent experiments) came to 0.97 µg/mL. In addition, the “Hemmwirkung auf die Polymerisation von Tubulin” value with Rindertubulin was “sehr potente Hemmwirkung”.
Consider `Cc1ccc2cc(NC(=O)C(=O)c3cn(Cc4ccc(Cl)cc4)c4ccccc34)ccc2n1` [Verbindung 9, 2-[1-(4-Chlor-benzyl)-1H-indol-3-yl]-N-(2-methyl-chinolin-6-yl)-2-oxo-acetamid], for which, in the data set on Rindertubulin, the “Hemmwirkung auf die Polymerisation von Tubulin” value is given as “sehr potente Hemmwirkung”.
As for `O=C(Nc1cccc2cnccc12)C(=O)c1cn(Cc2ccc(Cl)cc2)c2ccccc12` [Verbindung 13, 2-[1-(4-Chlor-benzyl)-1H-indol-3-yl]-N-isochinolin-5-yl-2-oxo-acetamid], the EC50 is above 3.16 µg/mL in data set [1]; above 3.16 µg/mL in data set [2]; above 3.16 µg/mL in [3]; above 3.16 µg/mL in data set [4]; above 10 µM in the data set with Rindertubulin (setting [6]). In addition, in the data set on Rindertubulin, the “Hemmwirkung auf die Polymerisation von Tubulin” value is reported as “keinen Effekt”.
For `O=C(Nc1ccc2ncccc2c1)C(=O)c1cn(Cc2ccc(Cl)cc2)c2ccccc12` [Verbindung 10, 2-[1-(4-Chlor-benzyl)-1H-indol-3-yl]-2-oxo-N-chinolin-6-yl-acetamid], the “Optimale T/C % (Tag)” value is given as 0.8% (14) in the data set on Melanom, MEXF462 (55 mg/kg p.o., day 14); 2.3% (7) in the data set on Melanom, MEXF462 (70 mg/kg p.o., day 7); 6.5% (10) in the data set on Mamma, MAXF857 (day 10). In addition, the Todesfällen in the data set with Melanom, MEXF462 (55 mg/kg p.o.) is listed as 2/6 Mäuse tot; with Melanom, MEXF462 (70 mg/kg p.o.), 5/6 Mäuse tot; with Mamma, MAXF857 it was 2/6; in the data set on Mamma, MAXF857 (listed as 10 (V)), 2/6 Mäuse tot.
In the case of `CC[C@]1(O)C[C@H]2CN(CCc3c([nH]c4ccccc34)[C@@](C(=O)OC)(c3cc4c(cc3OC)N(C=O)[C@H]3[C@@](O)(C(=O)OC)[C@H](OC(C)=O)[C@]5(CC)C=CCN6CC[C@]43[C@@H]65)C2)C1` [Vincristine], in [5], the “Hemmung der Topoisomerase II (Inhibierung der Decatenation von kDNA)” value is given as “keine inhibitorischen Effekte”. For the same molecule, on human Topoisomerase II, the “Hemmung der Topoisomerase II (Inhibierung der pRYG Relaxation)” value is reported as “keine inhibitorischen Effekte”.
For the molecule `O=C(Nc1ccncc1)C(=O)c1cn(Cc2ccc(Cl)cc2)c2ccccc12` [Verbindung 14, 2-[1-(4-Chlor-benzyl)-1H-indol-3-yl]-2-oxo-N-pyridin-4-yl-acetamid], in the data set with KB/HeLa Zellen, the EC50 was above 1000 nM. Besides, the “Optimale T/C % (Tag)” value is listed as 0.7% (18) in the data set with Melanom, MEXF462 (16 mg/kg p.o., day 18) and 14.6% (7) in the data set on Melanom, MEXF462 (32 mg/kg p.o., day 7). The Todesfällen with Melanom, MEXF462 (16 mg/kg p.o.) is recorded as 3/5 Mäuse tot; in the data set on Melanom, MEXF462 (32 mg/kg p.o.) it was 3/5 Mäuse tot.
As to `Cc1ccc2cccc(NC(=O)C(=O)c3cn(Cc4ccc(F)cc4)c4ccccc34)c2n1` [Verbindung 15, 2-[1-(4-Fluor-benzyl)-1H-indol-3-yl]-N-(2-methyl-chinolin-8-yl)-2-oxo-acetamid], the EC50 in data set [1] was above 3.16 µg/mL; in data set [3], above 3.16 µg/mL; in the data set on Rindertubulin (setting [6]), above 10 µM. For the same molecule, the “Hemmwirkung auf die Polymerisation von Tubulin” value with Rindertubulin is “keinen Effekt”.
As for `CC(=O)O[C@H]1C(=O)[C@@]2(C)[C@H]([C@H](OC(=O)c3ccccc3)[C@]3(O)C[C@H](OC(=O)[C@H](O)[C@@H](NC(=O)c4ccccc4)c4ccccc4)C(C)=C1C3(C)C)[C@]1(OC(C)=O)CO[C@@H]1C[C@@H]2O` [Paclitaxel], the “Hemmung der Topoisomerase II (Inhibierung der Decatenation von kDNA)” value in data set [5] was “keine inhibitorischen Effekte”. Also, the “Hemmung der Topoisomerase II (Inhibierung der pRYG Relaxation)” value at human Topoisomerase II is “keine inhibitorischen Effekte”.
With `O=C(Nc1cccc2cccnc12)C(=O)c1cn(Cc2ccc(Cl)cc2)c2ccccc12` [Verbindung 12, 2-[1-(4-Chlor-benzyl)-1H-indol-3-yl]-2-oxo-N-chinolin-8-yl-acetamid], the EC50 was above 3.16 µg/mL in [1]; above 3.16 µg/mL in data set [2]; above 3.16 µg/mL in data set [3]; above 3.16 µg/mL in data set [4]; above 10 µM in the data set on Rindertubulin (setting [6]). Besides, the “Hemmwirkung auf die Polymerisation von Tubulin” value in the data set on Rindertubulin was “keinen Effekt”.
